In assay [1] the test system is α-smooth muscle actin (αSMA) positive LL29 cells. The assay can be described thus: Inhibition of fibrotic process: αSMA in TGF-β1 treated primary human fibroblasts from IPF patients.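 For all read-outs here: controls were TGF-β1 stimulated wells with DMSO vehicle (positive) and cells given DMSO alone (negative), cultured in F12 medium with 1% fetal bovine serum.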 Format: cell-based. The following applies: Homo sapiens, Fibroblast; for EC50: 96 h, Table 8, LL29 fibroblasts from IPF patients, TGF-β1 20 ng/mL, 4 days, dose-response 10 μM to 0.94 nM; for inhibition at 10 µM: read-out: percent value in parentheses beside EC50 >10 μM.

Assay [2] relates to Tau phosphorylation at Ser396 (pSer396). The assay can be described thus: Tau phosphorylation assay (pSer396 ELISA / western blot) in SH-SY5Y cells.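 Note: EC50 for reduction of Tau pSer396 in lysed cells, measured by colorimetric ELISA or chemiluminescent western blot, both using the same pSer396 antibody.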 The class given is cell-based, human. Conditions: Homo sapiens; SH-SY5Y cells, overnight (16-18 h) exposure; read-out: pSer396 Tau EC50.
The target of assay [3] is recombinant DYRK1A kinase (Homo sapiens (Human), UniProt Q13627). Put plainly: DYRK1A kinase assay (Ser/Thr 18 peptide Z-lyte FRET).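 Note: Read-out is the coumarin to fluorescein emission ratio, referenced to unphosphorylated (0%) and phosphorylated (100%) Ser/Thr 18 peptide controls, values from dose-response curves by non-linear regression.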 The class given is biochemical. The following applies: 30 μM ATP, 1 h room temperature.
In another assay the test system is IL-6. The assay can be described thus: IL-6 inhibition in LPS-stimulated human peripheral blood mononuclear cells (HTRF).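 For all read-outs here: IL-6 detected by HTRF with an XL665- and Cryptate-labelled anti-IL-6 antibody pair, samples run in duplicate, EC50 obtained from a four-parameter Levenberg-Marquardt curve fit.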 The class given is cell-based. Conditions: Homo sapiens, PBMC; for EC50: Table 9, huPBMCs, LPS 50 ng/mL, 22 hours, dose-response starting from 10 μM.
Assay [4] concerns SW480 colon carcinoma cells. The assay can be described thus: Cell viability assay (CellTiter-Glo). The following applies: Homo sapiens, 96 h; SW480 cells, CellTiter-Glo, four days incubation. Format: cell-based, human.
Assay [5] deals with Wnt pathway (Sp5-Luc reporter, TCF/LEF binding sites) in SW480 colon carcinoma cells. Put plainly: Screening assay for Wnt activity: Sp5-Luc reporter gene assay.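 Note: firefly luciferase luminescence read in stably transduced SW480 cells carrying the Sp5 promoter reporter with eight TCF/LEF sites, compounds given in 0.1% DMSO final.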 The class given is cell-based, human. Conditions: Homo sapiens; Sp5-Luc reporter, SW480 cells, 36 to 48 hours.
Experimental: The screening assay for Wnt activity is described as follows.
Following incubation, 15 μl of BriteLite Plus luminescence reagent (Perkin Elmer) was added to each well of the 384-well assay plates. The plates were placed on an orbital shaker for 2 min and then luminescence was quantified using the Envision (Perkin Elmer) plate reader.
The next assay addresses recombinant GSK3β kinase (Homo sapiens (Human), UniProt P49841). Put plainly: GSK3β kinase assay (Ser/Thr 09 peptide Z-lyte FRET).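 Note: kinase activity read as coumarin to fluorescein emission ratio, 11-point threefold dilutions from 10 µM to 0.0003 µM in duplicate, unphosphorylated and phosphorylated peptide as 0% and 100% controls.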 Format: biochemical. The following applies: 46 μM ATP, 1 h room temperature.

The structures appear in SMILES notation.

Chain of recombinant GSK3β kinase (P49841 whole entry): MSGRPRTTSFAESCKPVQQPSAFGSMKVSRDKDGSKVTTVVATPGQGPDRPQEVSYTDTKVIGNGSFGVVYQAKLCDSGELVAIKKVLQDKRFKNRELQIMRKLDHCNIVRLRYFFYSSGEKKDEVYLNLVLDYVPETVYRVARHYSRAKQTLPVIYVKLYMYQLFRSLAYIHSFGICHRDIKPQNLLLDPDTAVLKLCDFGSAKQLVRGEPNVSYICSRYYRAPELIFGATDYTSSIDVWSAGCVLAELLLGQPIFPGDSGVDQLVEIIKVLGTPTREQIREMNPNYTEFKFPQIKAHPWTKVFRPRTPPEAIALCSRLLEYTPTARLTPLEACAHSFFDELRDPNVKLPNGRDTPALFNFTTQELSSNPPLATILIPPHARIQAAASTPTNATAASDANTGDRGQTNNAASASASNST
Experimental for IL-6: After 22 hour incubation, a mixture of anti-IL6 XL665 and anti-IL-6 Cryptate diluted in reconstitution buffer (Catalog #62IL6PEC, Cisbio Inc., Bedford, Mass.) was added to each well. […] All samples were processed in duplicate. […] EC50 was determined using software generated by Dotmatics Limited (Windhill Bishops Stortford Herts, UK) using the Levenberg-Marquardt 4 parameter fitting procedure with finite different gradients.

As for `CC(C)CN1CCC[C@H](C(=O)Nc2cc3cc(-c4cnn(C)c4)ccc3cn2)C1` [Compound 112, (S)-1-Isobutyl-N-(6-(1-methyl-1H-pyrazol-4-yl)isoquinolin-3-yl)piperidine-3-carboxamide], the EC50 worked out at 546 nM in assay [1]; 1750 nM in assay [2]; 20.6 nM in assay [3]; 2990 nM in the assay on IL-6; 6420 nM in assay [4]; 3200 nM in assay [5]. The EC50 on recombinant GSK3β kinase stood at 292 nM.
In the case of `CC(C)CN1CCC[C@@H](C(=O)Nc2cc3cc(-c4cnn(C)c4)ccc3cn2)C1` [Compound 113, (R)-1-Isobutyl-N-(6-(1-methyl-1H-pyrazol-4-yl)isoquinolin-3-yl)piperidine-3-carboxamide], the 50% effective concentration (EC50) is 2110 nM in assay [1]; 3800 nM in assay [2]; 24.1 nM in assay [3]; 1920 nM with IL-6; above 10000 nM in assay [4]; above 10000 nM in assay [5]. Moreover, the EC50 on recombinant GSK3β kinase was determined as 586 nM.
As to `Cn1cc(-c2ccc3cnc(NC(=O)C4CCOCC4)cc3c2)cn1` [Compound 114, N-(6-(1-Methyl-1H-pyrazol-4-yl)isoquinolin-3-yl)tetrahydro-2H-pyran-4-carboxamide], the half-maximal effective concentration (EC50) in assay [1] amounted to 735 nM; in assay [2], 286 nM; in assay [3], 1.9 nM; in the assay with IL-6 it was 1140 nM; in assay [4] it was 3890 nM; in assay [5], 835 nM. Also, the EC50 on recombinant GSK3β kinase was 32 nM.
On to `Cn1cc(-c2ccc3cnc(NC(=O)CN4CCC(F)CC4)cc3c2)cn1` [Compound 116, 2-(4-Fluoropiperidin-1-yl)-N-(6-(1-methyl-1H-pyrazol-4-yl)isoquinolin-3-yl)acetamide], for which the concentration for a half-maximal effect (EC50) is 830 nM in assay [1]; 870 nM in assay [2]; 4.3 nM in assay [3]; 1330 nM in the assay with IL-6; 6500 nM in assay [4]; 7100 nM in assay [5]. The half-maximal effective concentration (EC50) at recombinant GSK3β kinase worked out at 24 nM.
`CN1CCN(CC(=O)Nc2cc3cc(-c4cnn(C)c4)ccc3cn2)CC1` [Compound 118, N-(6-(1-Methyl-1H-pyrazol-4-yl)isoquinolin-3-yl)-2-(4-methylpiperazin-1-yl)acetamide]: the EC50 was determined as 821 nM in assay [1]; 1200 nM in assay [2]; 9.6 nM in assay [3]; 3610 nM with IL-6; 5940 nM in assay [4]; 3600 nM in assay [5]. The EC50 on recombinant GSK3β kinase came out at 79 nM.
As for `Cc1ncc(-c2ccc3cnc(NC(=O)C4CC4)cc3c2)n1C` [Compound 119, N-(6-(1,2-Dimethyl-1H-imidazol-5-yl)isoquinolin-3-yl) cyclopropanecarboxamide], the EC50 was 1410 nM in assay [1]; 418 nM in assay [2]; 2.9 nM in assay [3]; 1200 nM in the assay with IL-6; 525 nM in assay [4]; 1060 nM in assay [5]. In addition, the half-maximal effective concentration (EC50) on recombinant GSK3β kinase came out at 7 nM.
In the case of `Cc1ncc(-c2ccc3cnc(NC(=O)C4CCC(F)(F)CC4)cc3c2)n1C` [Compound 121, N-(6-(1,2-Dimethyl-1H-imidazol-5-yl)isoquinolin-3-yl)-4,4-difluorocyclohexanecarboxamide], the EC50 in assay [1] was determined as 1080 nM; in assay [2] it was 1030 nM; in assay [3], 3.4 nM; with IL-6 it was 3650 nM; in assay [4], 4310 nM; in assay [5] it was 3500 nM. The EC50 at recombinant GSK3β kinase turned out to be 53 nM.
As to `Cc1ncc(-c2ccc3cnc(NC(=O)[C@@H]4CCCO4)cc3c2)n1C` [Compound 188, (S)—N-(6-(1,2-Dimethyl-1H-imidazol-5-yl)isoquinolin-3-yl)tetrahydrofuran-2-carboxamide], the concentration for a half-maximal effect (EC50) in assay [1] is above 10000 nM; in assay [2] it was 4220 nM; in assay [3], 28.6 nM; in the assay on IL-6 it was 9980 nM; in assay [4], above 10000 nM; in assay [5], above 10000 nM. Further, the concentration giving a half-maximal response (EC50) on recombinant GSK3β kinase turned out to be 265 nM. The inhibition at 10 µM in assay [1] came out at 12.4%.
On to `CN1CCC(C(=O)Nc2cc3cc(-c4ccn(C)n4)ccc3cn2)CC1` [Compound 264, 1-Methyl-N-(6-(1-methyl-1H-pyrazol-3-yl)isoquinolin-3-yl)piperidine-4-carboxamide], for which the EC50 was above 10000 nM in assay [1]; above 10000 nM in assay [2]; 348 nM in assay [3]; above 10000 nM in the assay on IL-6; 8750 nM in assay [4]; above 10000 nM in assay [5]. Moreover, at recombinant GSK3β kinase, the half-maximal effective concentration (EC50) is above 10000 nM. The inhibition at 10 µM in assay [1] stood at 11.7%; with IL-6 (read-out: percent value in parentheses beside EC50 >10 μM), 4%.
For the compound `O=C(Nc1cc2cc(-c3cnc4n3CCNC4)ccc2cn1)C1CC1` [Compound 265, N-(6-(5,6,7,8-Tetrahydroimidazo[1,2-a]pyrazin-3-yl)isoquinolin-3-yl) cyclopropanecarboxamide], the EC50 amounted to 2560 nM in assay [1]; 656 nM in assay [2]; 3.7 nM in assay [3]; 3000 nM in the assay on IL-6; 4350 nM in assay [4]; 1240 nM in assay [5]. On recombinant GSK3β kinase, the EC50 is 7 nM.
Take `CN1CCn2c(-c3ccc4cnc(NC(=O)C5CC5)cc4c3)cnc2C1` [Compound 266, N-(6-(7-Methyl-5,6,7,8-tetrahydroimidazo[1,2-a]pyrazin-3-yl)isoquinolin-3-yl)cyclopropanecarboxamide]: the EC50 in assay [1] came to 697 nM; in assay [2], 1200 nM; in assay [3], 17.4 nM; with IL-6 it was 1930 nM; in assay [4], 6320 nM; in assay [5], 2440 nM. Also, on recombinant GSK3β kinase, the EC50 came to 38 nM.
Regarding `CN1CCn2ncc(-c3ccc4cnc(NC(=O)C5CC(F)(F)C5)cc4c3)c2C1` [Compound 267, 3,3-Difluoro-N-(6-(5-methyl-4,5,6,7-tetrahydropyrazolo[1,5-a]pyrazin-3-yl)isoquinolin-3-yl)cyclobutanecarboxamide], the EC50 came to 590 nM in assay [1]; 555 nM in assay [2]; 29.4 nM in assay [3]; 9410 nM in the assay on IL-6; 2020 nM in assay [4]; 1380 nM in assay [5]. The EC50 on recombinant GSK3β kinase amounted to 39 nM.
On to `Cc1ncc(-c2ccc3cnc(NC(=O)C4CC(F)(F)C4)cc3c2)n1C` [Compound 268, N-(6-(1,2-Dimethyl-1H-imidazol-5-yl)isoquinolin-3-yl)-3,3-difluorocyclobutanecarboxamide], for which the EC50 in assay [1] worked out at 73 nM; in assay [2] it was 478 nM; in assay [3], 5.8 nM; in the assay on IL-6 it was 8170 nM; in assay [4], 2770 nM; in assay [5], 2070 nM. Moreover, the EC50 at recombinant GSK3β kinase amounted to 17 nM.
`Cn1nccc1-c1ccc2cnc(NC(=O)C3CCN(CCC(F)(F)F)CC3)cc2c1` [Compound 270, N-(6-(1-Methyl-1H-pyrazol-5-yl)isoquinolin-3-yl)-1-(3,3,3-trifluoropropyl) piperidine-4-carboxamide]: the EC50 is above 10000 nM in assay [1]; above 10000 nM in assay [2]; 952 nM in assay [3]; 9980 nM in the assay on IL-6; above 10000 nM in assay [4]; above 10000 nM in assay [5]. Further, at recombinant GSK3β kinase, the EC50 stood at 5310 nM. Further, the inhibition at 10 µM in assay [1] is 11.4%.
As for `CC(C)CN1CCN(CC(=O)Nc2cc3cc(-c4cnn(C)c4)ccc3cn2)CC1` [Compound 272, 2-(4-Isobutylpiperazin-1-yl)-N-[6-(1-methylpyrazol-4-yl)-3-isoquinolyl]acetamide], the half-maximal effective concentration (EC50) in assay [1] worked out at 2540 nM; in assay [2] it was 1660 nM; in assay [3], 14 nM; with IL-6 it was 3100 nM; in assay [4] it was 5870 nM; in assay [5], 3750 nM. At recombinant GSK3β kinase, the EC50 turned out to be 105 nM.
Take `Cn1cc(-c2ccc3cnc(NC(=O)CN4CC(C)(C)C4)cc3c2)cn1` [Compound 273, 2-(3,3-Dimethylazetidin-1-yl)-N-[6-(1-methylpyrazol-4-yl)-3-isoquinolyl]acetamide]: the 50% effective concentration (EC50) worked out at 515 nM in assay [1]; 492 nM in assay [2]; 10.7 nM in assay [3]; 842 nM in the assay with IL-6; 1180 nM in assay [4]; 1510 nM in assay [5]. For the same compound, the EC50 on recombinant GSK3β kinase is 48 nM.
In the case of `Cn1cc(-c2ccc3cnc(NC(=O)CN4CC[C@@H](F)C4)cc3c2)cn1` [Compound 274, 2-[(3R)-3-fluoropyrrolidin-1-yl]-N-[6-(1-methylpyrazol-4-yl)-3-isoquinolyl]acetamide], the EC50 in assay [1] worked out at 195 nM; in assay [2], 535 nM; in assay [3], 5.9 nM; in the assay on IL-6, 3220 nM; in assay [4], 4050 nM; in assay [5] it was 3720 nM. Besides, on recombinant GSK3β kinase, the concentration giving a half-maximal response (EC50) is 25 nM.
With `Cn1cncc1-c1ccc2cnc(NC(=O)CN3CCCCC3)cc2c1` [Compound 275, N-[6-(3-methylimidazol-4-yl)-3-isoquinolyl]-2-(1-piperidyl) acetamide], the half-maximal effective concentration (EC50) in assay [1] turned out to be 431 nM; in assay [2] it was 232 nM; in assay [3] it was 4.7 nM; in the assay on IL-6, 1140 nM; in assay [4], 1280 nM; in assay [5] it was 1920 nM. Also, the concentration for a half-maximal effect (EC50) at recombinant GSK3β kinase worked out at 115 nM.

For the origin of these results see US10287267B2, “Isoquinolin-3-yl carboxamides and preparation and use thereof” (Samumed, LLC, priority 2016, dated 2019).
